Active and inactive are the calls of the source. The calls are words filed in the database; no cut-off is given here.
Tests used:
[1] = Drug metabolism in rat plasma assessed as formation of 6s/12as-heptachpyridone incubated for 1 hr by HPLC-FT-ICR-MS analysis; type: ADME, cell-free
Rattus norvegicus [2] = assay: Antithrombotic activity in rat model of thread-induced arterial thrombosis assessed as reduction artery thrombus at 167 umol/kg, po; type: functional, organism-based; conditions: dose 167.0 µmol/kg
[3] = Drug metabolism in rat plasma assessed as formation of 6s/12as-bisdimethoxyethylheptachpyridone incubated for 1 hr by HPLC-FT-ICR-MS analysis; type: ADME, cell-free
Rattus norvegicus [4] = assay: Antithrombotic activity in rat model of inferior vena cava ligation-induced venous thrombosis assessed as reduction in venous thrombus weight at 4.87 umol/kg, po; type: functional, organism-based; conditions: dose 4.87 µmol/kg
[5] = Toxicity in inferior vena cava ligation-induced venous thrombosis rat model assessed as bleeding time at 4.87 umol/kg; conditions: in vivo, dose 4.87 µmol/kg
[6] = Toxicity in inferior vena cava ligation-induced venous thrombosis rat model assessed as clotting time at 4.87 umol/kg; conditions: in vivo, dose 4.87 µmol/kg
[7] = Toxicity in inferior vena cava ligation-induced venous thrombosis rat model assessed as international normalized ratio measure of prothrombin time and exogenous coagulation pathway at 4.87 umol/kg; conditions: in vivo, dose 1 µmol/kg
Rattus norvegicus [8] = assay: Antithrombotic activity in rat model of inferior vena cava ligation-induced venous thrombosis assessed as reduction in venous thrombus weight at 1 umol/kg, po; type: functional, organism-based; conditions: dose 1.0 µmol/kg
[9] = Toxicity in inferior vena cava ligation-induced venous thrombosis rat model assessed as clotting time at 1 umol/kg; conditions: in vivo, dose 1 µmol/kg
Rattus norvegicus [10] = assay: Antithrombotic activity in rat model of thread-induced arterial thrombosis assessed as reduction artery thrombus at 1 umol/kg, po; type: functional, organism-based; conditions: dose 1.0 µmol/kg
[11] = Toxicity in inferior vena cava ligation-induced venous thrombosis rat model assessed as bleeding time at 1 umol/kg; conditions: in vivo, dose 1 µmol/kg
[12] = Toxicity in inferior vena cava ligation-induced venous thrombosis rat model assessed as international normalized ratio measure of prothrombin time and exogenous coagulation pathway at 1 umol/kg; conditions: in vivo, dose 1 µmol/kg

COC(C[C@H]1c2[nH]c3ccccc3c2C[C@H]2C(=O)N3[C@@H](Cc4c([nH]c5ccccc45)[C@@H]3CC(OC)OC)C(=O)N21)OC
Drug metabolism [1]: Metabolite_Detected

CC(=O)Oc1ccccc1C(=O)O
Activity (Rattus norvegicus [2]): Active

COC(C[C@@H]1N[C@H](C(=O)O)Cc2c1[nH]c1ccccc21)OC
Drug metabolism [3]: Metabolite_Detected

CC(=O)CC(c1ccccc1)c1c(O)c2ccccc2oc1=O (configuration not stated) [WARFARIN]
Activity (Rattus norvegicus [4]): Active
Activity [5]: Toxic
Activity [6]: Toxic
Activity [7]: Toxic

O=CC[C@H]1c2[nH]c3ccccc3c2C[C@H]2C(=O)N3[C@@H](Cc4c([nH]c5ccccc45)[C@@H]3CC=O)C(=O)N21
Activity (Rattus norvegicus [8]): Active
Activity [9]: Non-Toxic
Activity (Rattus norvegicus [10]): Active
Activity [11]: Non-Toxic
Activity [12]: Non-Toxic

Source: ChEMBL document CHEMBL4673233, “Discovery of novel (6S/12aS)-heptachpyridone capable of inhibiting thrombosis in vivo” (Bioorg Med Chem Lett, 2020)
